Data reported in PubChem BioAssay AID2060502 (Molecular Pharmacology Branch, DTP, NCI, 2025).

Tested on: 885724-159-R-J1-PDC complex spheroid viability
Assay: Anticancer human tumor 885724-159-R-J1-PDC patient-derived pancreatic adenocarcinoma cell line growth inhibition [GQUAD]
Details: for IC50: curve of first compound; for viability, T/C: stronger effect = lower value
In short: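 Multi-cell-type spheroids of tumor cells with HUVEC and mesenchymal stem cells, treated with drug combinations. Concentrations descend in half-log steps from near clinical Cmax, or from 10 microM where Cmax is unknown; viability read-out.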

[1] = second compound 0.0316 µM, first compound 0.0316 µM
[2] = second compound 0.0316 µM, first compound 0.1 µM
[3] = second compound 0.0316 µM, first compound 0.316 µM
[4] = second compound 0.0316 µM, first compound 1 µM
[5] = second compound 0.0316 µM, first compound 3.16 µM
[6] = second compound 0.0316 µM, first compound 10 µM
[7] = second compound 0.1 µM, first compound 0.0316 µM
[8] = second compound 0.1 µM, first compound 0.1 µM
[9] = second compound 0.1 µM, first compound 0.316 µM
[10] = second compound 0.1 µM, first compound 1 µM
[11] = second compound 0.1 µM, first compound 3.16 µM
[12] = second compound 0.1 µM, first compound 10 µM
[13] = second compound 0.316 µM, first compound 0.0316 µM
[14] = second compound 0.316 µM, first compound 0.1 µM
[15] = second compound 0.316 µM, first compound 0.316 µM
[16] = second compound 0.316 µM, first compound 1 µM
[17] = second compound 0.316 µM, first compound 3.16 µM
[18] = second compound 0.316 µM, first compound 10 µM
[19] = second compound 1 µM, first compound 0.0316 µM
[20] = second compound 1 µM, first compound 0.1 µM
[21] = second compound 1 µM, first compound 0.316 µM
[22] = second compound 1 µM, first compound 1 µM
[23] = second compound 1 µM, first compound 3.16 µM
[24] = second compound 1 µM, first compound 10 µM
[25] = second compound 3.16 µM, first compound 0.0316 µM
[26] = second compound 3.16 µM, first compound 0.1 µM
[27] = second compound 3.16 µM, first compound 0.316 µM
[28] = second compound 3.16 µM, first compound 1 µM
[29] = second compound 3.16 µM, first compound 3.16 µM
[30] = second compound 3.16 µM, first compound 10 µM
[31] = second compound 10 µM, first compound 0.0316 µM
[32] = second compound 10 µM, first compound 0.1 µM
[33] = second compound 10 µM, first compound 0.316 µM
[34] = second compound 10 µM, first compound 1 µM
[35] = second compound 10 µM, first compound 3.16 µM
[36] = second compound 10 µM, first compound 10 µM
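Also: spheroids exposed to agents for seven days before readout.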
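For viability, T/C in this document: percent of vehicle control viability where 100% = DMSO wells.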

## O=C(c1cc(Cc2n[nH]c(=O)c3ccccc23)ccc1F)N1CCN(C(=O)C2CC2)CC1 + CN(C)c1ccc(Nc2c3ccc(NC(=O)CCN4CCCC4)cc3nc3cc(NC(=O)CCN4CCCC4)ccc23)cc1
Second compound 0.0316 µM
  IC50: > 10 µM
Second compound 0.1 µM
  IC50: > 10 µM
Second compound 0.316 µM
  IC50: > 10 µM
Second compound 1 µM
  IC50: > 10 µM
Second compound 3.16 µM
  IC50: > 10 µM
Second compound 10 µM
  IC50: > 10 µM
[1]
  viability, T/C: 117%
[2]
  viability, T/C: 93.1%
[3]
  viability, T/C: 89.7%
[4]
  viability, T/C: 92.4%
[5]
  viability, T/C: 95.3%
[6]
  viability, T/C: 88.8%
[7]
  viability, T/C: 101%
[8]
  viability, T/C: 100%
[9]
  viability, T/C: 103%
[10]
  viability, T/C: 106%
[11]
  viability, T/C: 85.3%
[12]
  viability, T/C: 72.5%
[13]
  viability, T/C: 90.6%
[14]
  viability, T/C: 88.1%
[15]
  viability, T/C: 105%
[16]
  viability, T/C: 93.5%
[17]
  viability, T/C: 97.1%
[18]
  viability, T/C: 80%
[19]
  viability, T/C: 83.3%
[20]
  viability, T/C: 80%
[21]
  viability, T/C: 87%
[22]
  viability, T/C: 73.3%
[23]
  viability, T/C: 76.7%
[24]
  viability, T/C: 63.8%
[25]
  viability, T/C: 79.4%
[26]
  viability, T/C: 65.2%
[27]
  viability, T/C: 84.4%
[28]
  viability, T/C: 73.2%
[29]
  viability, T/C: 70.5%
[30]
  viability, T/C: 69.5%
[31]
  viability, T/C: 72.1%
[32]
  viability, T/C: 74.2%
[33]
  viability, T/C: 69.9%
[34]
  viability, T/C: 75.9%
[35]
  viability, T/C: 90.1%
[36]
  viability, T/C: 69.6%

## COc1ncnc(C2CC2)c1-c1ncc2cnn(Cc3ccc(-c4nc(C(F)(F)F)cn4C(C)C)cc3)c2n1 + CN(C)c1ccc(Nc2c3ccc(NC(=O)CCN4CCCC4)cc3nc3cc(NC(=O)CCN4CCCC4)ccc23)cc1
Second compound 0.0316 µM
  IC50: > 10 µM
Second compound 0.1 µM
  IC50: > 10 µM
Second compound 0.316 µM
  IC50: > 10 µM
Second compound 1 µM
  IC50: > 10 µM
Second compound 3.16 µM
  IC50: > 10 µM
Second compound 10 µM
  IC50: > 10 µM
[1]
  viability, T/C: 96.8%
[2]
  viability, T/C: 101%
[3]
  viability, T/C: 85.6%
[4]
  viability, T/C: 86.9%
[5]
  viability, T/C: 81.4%
[6]
  viability, T/C: 105%
[7]
  viability, T/C: 103%
[8]
  viability, T/C: 88.2%
[9]
  viability, T/C: 96.9%
[10]
  viability, T/C: 98%
[11]
  viability, T/C: 95%
[12]
  viability, T/C: 94.5%
[13]
  viability, T/C: 97.6%
[14]
  viability, T/C: 86.1%
[15]
  viability, T/C: 82.3%
[16]
  viability, T/C: 80.1%
[17]
  viability, T/C: 101%
[18]
  viability, T/C: 95.7%
[19]
  viability, T/C: 77.5%
[20]
  viability, T/C: 70.4%
[21]
  viability, T/C: 81.1%
[22]
  viability, T/C: 67.7%
[23]
  viability, T/C: 79.3%
[24]
  viability, T/C: 83.1%
[25]
  viability, T/C: 79.2%
[26]
  viability, T/C: 76.7%
[27]
  viability, T/C: 68.8%
[28]
  viability, T/C: 58%
[29]
  viability, T/C: 77.4%
[30]
  viability, T/C: 78.1%
[31]
  viability, T/C: 61.3%
[32]
  viability, T/C: 66.5%
[33]
  viability, T/C: 73.5%
[34]
  viability, T/C: 70.5%
[35]
  viability, T/C: 63.1%
[36]
  viability, T/C: 47.8%

## O=c1[nH]cc(F)c(=O)[nH]1 + CN(C)c1ccc(Nc2c3ccc(NC(=O)CCN4CCCC4)cc3nc3cc(NC(=O)CCN4CCCC4)ccc23)cc1
Second compound 0.0316 µM
  IC50: > 10 µM
Second compound 0.1 µM
  IC50: > 10 µM
Second compound 0.316 µM
  IC50: > 10 µM
Second compound 1 µM
  IC50: > 10 µM
Second compound 3.16 µM
  IC50: > 10 µM
Second compound 10 µM
  IC50: > 10 µM
[1]
  viability, T/C: 105%
[2]
  viability, T/C: 103%
[3]
  viability, T/C: 98.7%
[4]
  viability, T/C: 100%
[5]
  viability, T/C: 78%
[6]
  viability, T/C: 85.8%
[7]
  viability, T/C: 90.8%
[8]
  viability, T/C: 103%
[9]
  viability, T/C: 101%
[10]
  viability, T/C: 95.8%
[11]
  viability, T/C: 86.4%
[12]
  viability, T/C: 97.2%
[13]
  viability, T/C: 89%
[14]
  viability, T/C: 88.1%
[15]
  viability, T/C: 87.7%
[16]
  viability, T/C: 79.7%
[17]
  viability, T/C: 86.5%
[18]
  viability, T/C: 78.5%
[19]
  viability, T/C: 91.7%
[20]
  viability, T/C: 69.9%
[21]
  viability, T/C: 80.5%
[22]
  viability, T/C: 73.3%
[23]
  viability, T/C: 76.3%
[24]
  viability, T/C: 83.2%
[25]
  viability, T/C: 82.7%
[26]
  viability, T/C: 83.5%
[27]
  viability, T/C: 87.8%
[28]
  viability, T/C: 80.6%
[29]
  viability, T/C: 71.4%
[30]
  viability, T/C: 75.5%
[31]
  viability, T/C: 76%
[32]
  viability, T/C: 80%
[33]
  viability, T/C: 80.6%
[34]
  viability, T/C: 79%
[35]
  viability, T/C: 87.8%
[36]
  viability, T/C: 75%

## CCCS(=O)(=O)Nc1ccc(F)c(C(=O)c2c[nH]c3ncc(-c4ccc(Cl)cc4)cc23)c1F + Cc1[nH]c2ccc(F)cc2c1-c1nc2c3cccnc3c3ncccc3c2[nH]1
Second compound 0.0316 µM
  IC50: > 10 µM
Second compound 0.1 µM
  IC50: > 10 µM
Second compound 0.316 µM
  IC50: > 10 µM
Second compound 1 µM
  IC50: 7.43 µM
Second compound 3.16 µM
  IC50: < 0.0316 µM
Second compound 10 µM
  IC50: 8.37 µM
[1]
  viability, T/C: 98.7%
[2]
  viability, T/C: 106%
[3]
  viability, T/C: 112%
[4]
  viability, T/C: 130%
[5]
  viability, T/C: 123%
[6]
  viability, T/C: 65.2%
[7]
  viability, T/C: 110%
[8]
  viability, T/C: 106%
[9]
  viability, T/C: 116%
[10]
  viability, T/C: 124%
[11]
  viability, T/C: 125%
[12]
  viability, T/C: 65.6%
[13]
  viability, T/C: 97.6%
[14]
  viability, T/C: 89.8%
[15]
  viability, T/C: 90%
[16]
  viability, T/C: 107%
[17]
  viability, T/C: 130%
[18]
  viability, T/C: 59.8%
[19]
  viability, T/C: 71.8%
[20]
  viability, T/C: 60.4%
[21]
  viability, T/C: 88.2%
[22]
  viability, T/C: 90.8%
[23]
  viability, T/C: 102%
[24]
  viability, T/C: 38.7%
[25]
  viability, T/C: 17%
[26]
  viability, T/C: 17.7%
[27]
  viability, T/C: 14.4%
[28]
  viability, T/C: 18.3%
[29]
  viability, T/C: 13.9%
[30]
  viability, T/C: 4.94%
[31]
  viability, T/C: 65.9%
[32]
  viability, T/C: 73.4%
[33]
  viability, T/C: 77.7%
[34]
  viability, T/C: 93.8%
[35]
  viability, T/C: 110%
[36]
  viability, T/C: 43.6%

## COc1ncnc(C2CC2)c1-c1ncc2cnn(Cc3ccc(-c4nc(C(F)(F)F)cn4C(C)C)cc3)c2n1 + Cc1[nH]c2ccc(F)cc2c1-c1nc2c3cccnc3c3ncccc3c2[nH]1
Second compound 0.0316 µM
  IC50: > 10 µM
Second compound 0.1 µM
  IC50: > 10 µM
Second compound 0.316 µM
  IC50: > 10 µM
Second compound 1 µM
  IC50: > 10 µM
Second compound 3.16 µM
  IC50: < 0.0316 µM
Second compound 10 µM
  IC50: > 10 µM
[1]
  viability, T/C: 85.5%
[2]
  viability, T/C: 91.4%
[3]
  viability, T/C: 93.7%
[4]
  viability, T/C: 81.8%
[5]
  viability, T/C: 89.9%
[6]
  viability, T/C: 94%
[7]
  viability, T/C: 101%
[8]
  viability, T/C: 90%
[9]
  viability, T/C: 86.3%
[10]
  viability, T/C: 90.4%
[11]
  viability, T/C: 91.3%
[12]
  viability, T/C: 111%
[13]
  viability, T/C: 96.7%
[14]
  viability, T/C: 81.5%
[15]
  viability, T/C: 76.1%
[16]
  viability, T/C: 72.3%
[17]
  viability, T/C: 88%
[18]
  viability, T/C: 82.3%
[19]
  viability, T/C: 70.3%
[20]
  viability, T/C: 65.8%
[21]
  viability, T/C: 62.8%
[22]
  viability, T/C: 56.3%
[23]
  viability, T/C: 70.5%
[24]
  viability, T/C: 67.8%
[25]
  viability, T/C: 23.7%
[26]
  viability, T/C: 12.7%
[27]
  viability, T/C: 10.7%
[28]
  viability, T/C: 8.78%
[29]
  viability, T/C: 11.8%
[30]
  viability, T/C: 12.8%
[31]
  viability, T/C: 69.6%
[32]
  viability, T/C: 66%
[33]
  viability, T/C: 63.7%
[34]
  viability, T/C: 72.1%
[35]
  viability, T/C: 69.3%
[36]
  viability, T/C: 68.3%
